Here are results for 17 compounds from US20240391875A1, “ISOQUINOLINONES AND QUINOLINONES AS MODULATORS OF POLRMT” (Pretzel Therapeutics, Inc., priority 2021, published 2024).

The target in the test is POLRMT (Homo sapiens, UniProt O00411). Nature of the test: homogeneous TR-FRET assay of mitochondrial transcription (inhibition of POLRMT). The class given is biochemical. In a few lines:
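Recombinant POLRMT (7.5 nM) with TFB2M, TFAM and linearized LSP plasmid template, 500 μM NTPs, pH 7.5 Mg buffer; 60 min at 37° C. Reaction stopped with EDTA/high-salt buffer, 407 bp RNA transcript detected by hybridized ATTO647/Europium-cryptate probe pair; TR-FRET 665/620 nm ratio taken as transcript yield.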
Background: TR-FRET usually uses a lanthanide donor and a delayed reading to cut background.

The mark [1] stands for this setting: isoquinolinone compounds (Table 1).
The mark [2] stands for this setting: quinolinone compounds (Table 2).

Sequence of POLRMT (O00411 42-1230): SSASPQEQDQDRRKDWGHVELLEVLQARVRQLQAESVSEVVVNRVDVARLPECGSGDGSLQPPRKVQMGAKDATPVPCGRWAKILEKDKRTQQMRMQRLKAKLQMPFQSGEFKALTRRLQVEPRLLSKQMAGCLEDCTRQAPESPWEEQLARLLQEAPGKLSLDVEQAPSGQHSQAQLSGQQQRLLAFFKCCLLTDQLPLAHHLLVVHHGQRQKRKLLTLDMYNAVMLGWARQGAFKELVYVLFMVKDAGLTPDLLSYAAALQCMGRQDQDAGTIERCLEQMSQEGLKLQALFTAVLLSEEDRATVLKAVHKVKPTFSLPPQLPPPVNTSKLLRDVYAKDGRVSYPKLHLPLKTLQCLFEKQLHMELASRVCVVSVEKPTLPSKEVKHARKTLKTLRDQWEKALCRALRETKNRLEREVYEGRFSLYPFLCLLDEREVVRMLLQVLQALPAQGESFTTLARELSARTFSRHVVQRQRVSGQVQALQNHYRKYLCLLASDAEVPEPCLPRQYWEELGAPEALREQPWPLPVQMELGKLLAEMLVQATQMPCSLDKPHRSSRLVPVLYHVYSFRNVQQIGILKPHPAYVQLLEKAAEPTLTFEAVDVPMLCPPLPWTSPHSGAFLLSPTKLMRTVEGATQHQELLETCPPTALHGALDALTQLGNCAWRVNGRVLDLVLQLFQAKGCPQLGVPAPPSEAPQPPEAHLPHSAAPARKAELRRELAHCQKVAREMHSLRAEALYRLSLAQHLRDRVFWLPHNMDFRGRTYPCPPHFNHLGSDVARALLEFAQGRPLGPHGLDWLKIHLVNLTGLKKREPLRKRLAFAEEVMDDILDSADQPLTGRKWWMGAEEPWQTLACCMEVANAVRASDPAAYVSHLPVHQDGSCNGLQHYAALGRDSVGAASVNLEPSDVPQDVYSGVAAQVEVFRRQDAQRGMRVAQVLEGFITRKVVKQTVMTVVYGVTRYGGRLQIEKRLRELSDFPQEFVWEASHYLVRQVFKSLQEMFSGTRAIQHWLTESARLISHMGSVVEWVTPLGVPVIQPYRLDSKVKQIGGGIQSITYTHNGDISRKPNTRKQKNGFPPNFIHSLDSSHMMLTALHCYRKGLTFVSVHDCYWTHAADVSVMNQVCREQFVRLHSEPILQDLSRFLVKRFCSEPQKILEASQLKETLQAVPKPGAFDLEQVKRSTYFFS

In turn, `CC(C#N)Oc1ccc2c(-c3ccccc3Cl)c[nH]c(=O)c2c1` (single isomer, unassigned) [Example 57, 2-((4-(2-chlorophenyl)-1-oxo-1,2-dihydroisoquinolin-7-yl)oxy)propanenitrile] came in with an IC50 under setting [1] of 300 nM.

In the case of `Cc1ccccc1-c1c[nH]c(=O)c2cc(NC(C)C(=O)N3CCOCC3)ccc12` (centres unmarked) [Example 46], the midpoint of inhibition under setting [1], the IC50, lay at 2000 nM.

As for `Cc1ccccc1-c1c[nH]c(=O)c2cc(O[C@H](C)C(=O)N3C4CCC3COC4)ccc12` [Example 85, 7-(((2R)-1-(3-oxa-8-azabicyclo[3.2.1]octan-8-yl)-1-oxopropan-2-yl)oxy)-4-(o-tolyl)isoquinolin-1(2H)-one], 20 nM corresponded to half-maximal inhibition under setting [1] (IC50).

`Cc1ccccc1-c1c[nH]c(=O)c2cc(OCCN(C)C)ccc12` [Example 10, 7-(2-(dimethylamino)ethoxy)-4-(o-tolyl)isoquinolin-1(2H)-one] registered an IC50 under setting [1] above 100000 nM.

Compound `COCc1ccc2c(-c3ccccc3C)c[nH]c(=O)c2c1` [Example 44, 7-(methoxymethyl)-4-(o-tolyl)isoquinolin-1(2H)-one] returned an IC50 under setting [1] of 2000 nM.

`Cc1ccccc1-c1c[nH]c(=O)c2cc(NC(=O)C(C)C)ccc12` [Example 30, N-(1-oxo-4-(o-tolyl)-1,2-dihydroisoquinolin-7-yl)isobutyramide]: it took 2000 nM to reach half-maximal inhibition under setting [1] (IC50).

For `Cc1ccccc1-c1cc(=O)[nH]c2cc(O[C@H](C)C(=O)N3CCC[C@H](C(=O)O)C3)ccc12` [Example Q15, (S)-1-((R)-2-((2-oxo-4-(o-tolyl)-1,2-dihydroquinolin-7-yl)oxy)propanoyl)piperidine-3-carboxylic acid], the IC50 under setting [2] was found to be 7000 nM.

For `Cc1ccccc1-c1c[nH]c(=O)c2cc(OC(C)C(N)=O)ccc12` (single isomer, unassigned) [Example 73], the IC50 under setting [1] is 400 nM.

In the case of `COCCOc1ccc2c(-c3ccccc3C)c[nH]c(=O)c2c1` [Example 9, 7-(2-methoxyethoxy)-4-(o-tolyl)isoquinolin-1(2H)-one], the IC50 under setting [1] stood at 3000 nM.

Under setting [1], `CC(=O)N1CCN(C(=O)[C@@H](C)Oc2ccc3c(-c4ccc(F)cc4Cl)c[nH]c(=O)c3c2)CC1` [Example 116, (R)-7-((1-(4-acetylpiperazin-1-yl)-1-oxopropan-2-yl)oxy)-4-(2-chloro-4-fluorophenyl)isoquinolin-1(2H)-one] returned an IC50 of 500 nM.

As to `CCc1ccccc1-c1c[nH]c(=O)c2cc(OCC(N)=O)ccc12` [Example 138, 2-((4-(2-ethylphenyl)-1-oxo-1,2-dihydroisoquinolin-7-yl)oxy)acetamide], the IC50 under setting [1] was 12000 nM.

Turning to `COCC(C#N)Oc1ccc2c(-c3ccccc3C)c[nH]c(=O)c2c1` (single isomer, unassigned) [Example 75, 3-methoxy-2-((1-oxo-4-(o-tolyl)-1,2-dihydroisoquinolin-7-yl)oxy)propanenitrile], under setting [1], the IC50 came out at 4000 nM.

Turning to `Cc1ccccc1-c1c[nH]c(=O)c2cc(OC(C)C)ccc12` [Example 4, 7-isopropoxy-4-(o-tolyl)isoquinolin-1(2H)-one], under setting [1], the IC50 stood at 400 nM.

Consider `CCC(=O)N1CCN(C(=O)[C@@H](C)Oc2ccc3c(-c4ccc(F)cc4Cl)c[nH]c(=O)c3c2)CC1` [Example 117, (R)-4-(2-chloro-4-fluorophenyl)-7-((1-oxo-1-(4-propionylpiperazin-1-yl)propan-2-yl)oxy)isoquinolin-1(2H)-one], for which 500 nM corresponded to half-maximal inhibition under setting [1] (IC50).

Take `Cc1cc(F)ccc1-c1c[nH]c(=O)c2cc(OCC#N)ccc12` [Example 83, 2-((4-(4-fluoro-2-methylphenyl)-1-oxo-1,2-dihydroisoquinolin-7-yl)oxy)acetonitrile]: the IC50 under setting [1] was 400 nM.

`CC[C@@H](Oc1ccc2c(-c3ccccc3C)c[nH]c(=O)c2c1)C(=O)O` [Example 126, (R)-2-((1-oxo-4-(o-tolyl)-1,2-dihydroisoquinolin-7-yl)oxy)butanoic acid] showed an IC50 under setting [1] of 400 nM.

As to `Cc1ccccc1-c1cc(=O)[nH]c2cc(O[C@H](C)C(=O)O)ccc12` [Example Q13, (R)-2-((2-oxo-4-(o-tolyl)-1,2-dihydroquinolin-7-yl)oxy)propanoic acid], under setting [2], half-maximal inhibition (IC50) was put at 3000 nM.

Usually IC50 stands for the concentration needed to halve the response being measured.
